Laboratory results from paper PMC9389804 (Journal of Hematology & Oncology, 2022).
“And” between values parts separate entries of the source, which are not always exact repeats. Identical values can stand only once.

Experiment: safety assessments (adverse events, NCI CTCAE)
[1] = Grade 3/4 hematologic TRAE, all 165 patients
[2] = TRAE G 3/4, Accelerated phase CML n=38
[3] = TRAE G 3/4, Chronic phase CML n=127
[4] = TRAE any grades, Accelerated phase CML n=38
[5] = TRAE any grades, Chronic phase CML n=127

Procedure: Adverse events were assessed continuously and graded according to NCI CTCAE v5.0.18. Complete blood count with differential, serum chemistries, and physical examinations were performed before the study; weekly during Cycles 1 and 2; on alternate weeks in Cycles 3 and 4; and monthly thereafter.

Cc1ccc(C(=O)Nc2ccc(CN3CCN(C)CC3)c(C(F)(F)F)c2)cc1C#Cc1cnc2[nH]ncc2c1 [olverembatinib]
Anemia [1]: 23.0%
Neutropenia [1]: 11.5%
Thrombocytopenia [1]: 51.5%
Anemia [2]: 12 (31.6) n (%)
Arthralgia [2]: 1 (2.6) n (%)
Asthenia [2]: 0 n (%)
Hematologic [2]: 26 (68.4) n (%)
Hyperbilirubinemia [2]: 1 (2.6) n (%)
Hyperglycemia [2]: 0 n (%)
Hypertriglyceridemia [2]: 1 (2.6) n (%)
Hypoalbuminemia [2]: 0 n (%)
Hypocalcemia [2]: 0 n (%)
Hypokalemia [2]: 1 (2.6) n (%)
Hyponatremia [2]: 0 n (%)
Increased alanine aminotransferase [2]: 1 (2.6) n (%)
Increased alkaline phosphatase [2]: 0 n (%)
Increased aspartate aminotransferase [2]: 2 (5.3) n (%)
Increased creatine phosphokinase [2]: 1 (2.6) n (%)
Increased γ-glutamyl transferase [2]: 0 n (%)
Leukopenia [2]: 13 (34.2) n (%)
Myalgia [2]: 0 n (%)
Neutropenia [2]: 8 (21.1) n (%)
Nonhematologic [2]: 20 (52.6) n (%)
Pain in extremity [2]: 1 (2.6) n (%)
Proteinuria [2]: 1 (2.6) n (%)
Pyrexia [2]: 4 (10.5) n (%)
Rash [2]: 0 n (%)
Sinus tachycardia [2]: 0 n (%)
Skin pigmentation [2]: 0 n (%)
Thrombocytopenia [2]: 23 (60.5) n (%)
Treatment-related adverse events [2]: 34 (89.5) n (%)
Anemia [3]: 26 (20.5) n (%)
Arthralgia [3]: 0 n (%)
Asthenia [3]: 0 n (%)
Hematologic [3]: 67 (52.8) n (%)
Hyperbilirubinemia [3]: 3 (2.4) n (%)
Hyperglycemia [3]: 1 (0.8) n (%)
Hypertriglyceridemia [3]: 11 (8.7) n (%)
Hypoalbuminemia [3]: 0 n (%)
Hypocalcemia [3]: 0 n (%)
Hypokalemia [3]: 1 (0.8) n (%)
Hyponatremia [3]: 1 (0.8) n (%)
Increased alanine aminotransferase [3]: 3 (2.4) n (%)
Increased alkaline phosphatase [3]: 1 (0.8) n (%)
Increased aspartate aminotransferase [3]: 2 (1.6) n (%)
Increased creatine phosphokinase [3]: 10 (7.9) n (%)
Increased γ-glutamyl transferase [3]: 5 (3.9) n (%)
Leukopenia [3]: 21 (16.5) n (%)
Myalgia [3]: 0 n (%)
Neutropenia [3]: 11 (8.7) n (%)
Nonhematologic [3]: 61 (48.0) n (%)
Pain in extremity [3]: 1 (0.8) n (%)
Proteinuria [3]: 5 (3.9) n (%)
Pyrexia [3]: 5 (3.9) n (%)
Rash [3]: 1 (0.8) n (%)
Sinus tachycardia [3]: 0 n (%)
Skin pigmentation [3]: 0 n (%)
Thrombocytopenia [3]: 62 (48.8) n (%)
Treatment-related adverse events [3]: 97 (76.4) n (%)
Anemia (TRAE G 3/4, Total n=165): 38 (23.0) n (%)
Arthralgia (TRAE G 3/4, Total n=165): 1 (0.6) n (%)
Asthenia (TRAE G 3/4, Total n=165): 0 n (%)
Hematologic (TRAE G 3/4, Total n=165): 93 (56.4) n (%)
Hyperbilirubinemia (TRAE G 3/4, Total n=165): 4 (2.4) n (%)
Hyperglycemia (TRAE G 3/4, Total n=165): 1 (0.6) n (%)
Hypertriglyceridemia (TRAE G 3/4, Total n=165): 12 (7.3) n (%)
Hypoalbuminemia (TRAE G 3/4, Total n=165): 0 n (%)
Hypocalcemia (TRAE G 3/4, Total n=165): 0 n (%)
Hypokalemia (TRAE G 3/4, Total n=165): 2 (1.2) n (%)
Hyponatremia (TRAE G 3/4, Total n=165): 1 (0.6) n (%)
Increased alanine aminotransferase (TRAE G 3/4, Total n=165): 4 (2.4) n (%)
Increased alkaline phosphatase (TRAE G 3/4, Total n=165): 1 (0.6) n (%)
Increased aspartate aminotransferase (TRAE G 3/4, Total n=165): 4 (2.4) n (%)
Increased creatine phosphokinase (TRAE G 3/4, Total n=165): 11 (6.7) n (%)
Increased γ-glutamyl transferase (TRAE G 3/4, Total n=165): 5 (3.0) n (%)
Leukopenia (TRAE G 3/4, Total n=165): 34 (20.6) n (%)
Myalgia (TRAE G 3/4, Total n=165): 0 n (%)
Neutropenia (TRAE G 3/4, Total n=165): 19 (11.5) n (%)
Nonhematologic (TRAE G 3/4, Total n=165): 81 (49.1) n (%)
Pain in extremity (TRAE G 3/4, Total n=165): 2 (1.2) n (%)
Proteinuria (TRAE G 3/4, Total n=165): 6 (3.6) n (%)
Pyrexia (TRAE G 3/4, Total n=165): 9 (5.5) n (%)
Rash (TRAE G 3/4, Total n=165): 1 (0.6) n (%)
Sinus tachycardia (TRAE G 3/4, Total n=165): 0 n (%)
Skin pigmentation (TRAE G 3/4, Total n=165): 0 n (%)
Thrombocytopenia (TRAE G 3/4, Total n=165): 85 (51.5) n (%)
Treatment-related adverse events (TRAE G 3/4, Total n=165): 131 (79.4%) n (%) and 131 (79.4) n (%)
Anemia [4]: 24 (63.2) n (%)
Arthralgia [4]: 8 (21.1) n (%)
Asthenia [4]: 6 (15.8) n (%)
Hematologic [4]: 36 (94.7) n (%)
Hyperbilirubinemia [4]: 13 (34.2) n (%)
Hyperglycemia [4]: 10 (26.3) n (%)
Hypertriglyceridemia [4]: 23 (60.5) n (%)
Hypoalbuminemia [4]: 6 (15.8) n (%)
Hypocalcemia [4]: 19 (50.0) n (%)
Hypokalemia [4]: 10 (26.3) n (%)
Hyponatremia [4]: 10 (26.3) n (%)
Increased alanine aminotransferase [4]: 9 (23.7) n (%)
Increased alkaline phosphatase [4]: 5 (13.2) n (%)
Increased aspartate aminotransferase [4]: 10 (26.3) n (%)
Increased creatine phosphokinase [4]: 5 (13.2) n (%)
Increased γ-glutamyl transferase [4]: 9 (23.7) n (%)
Leukopenia [4]: 19 (50.0) n (%)
Myalgia [4]: 8 (21.1) n (%)
Neutropenia [4]: 8 (21.1) n (%)
Nonhematologic [4]: 38 (100.0) n (%)
Pain in extremity [4]: 7 (18.4) n (%)
Proteinuria [4]: 19 (50.0) n (%)
Pyrexia [4]: 9 (23.7) n (%)
Rash [4]: 8 (21.1) n (%)
Sinus tachycardia [4]: 7 (18.4) n (%)
Skin pigmentation [4]: 31 (81.6) n (%)
Thrombocytopenia [4]: 33 (86.8) n (%)
Treatment-related adverse events [4]: 38 (100.0) n (%)
Anemia [5]: 66 (52.0) n (%)
Arthralgia [5]: 11 (8.7) n (%)
Asthenia [5]: 12 (9.4) n (%)
Hematologic [5]: 102 (80.3) n (%)
Hyperbilirubinemia [5]: 56 (44.1) n (%)
Hyperglycemia [5]: 33 (26.0) n (%)
Hypertriglyceridemia [5]: 72 (56.7) n (%)
Hypoalbuminemia [5]: 20 (15.7) n (%)
Hypocalcemia [5]: 45 (35.4) n (%)
Hypokalemia [5]: 32 (25.2) n (%)
Hyponatremia [5]: 28 (22.0) n (%)
Increased alanine aminotransferase [5]: 50 (39.4) n (%)
Increased alkaline phosphatase [5]: 16 (12.6) n (%)
Increased aspartate aminotransferase [5]: 49 (38.6) n (%)
Increased creatine phosphokinase [5]: 43 (33.9) n (%)
Increased γ-glutamyl transferase [5]: 38 (29.9) n (%)
Leukopenia [5]: 37 (29.1) n (%)
Myalgia [5]: 23 (18.1) n (%)
Neutropenia [5]: 18 (14.2) n (%)
Nonhematologic [5]: 127 (100.0) n (%)
Pain in extremity [5]: 14 (11.0) n (%)
Proteinuria [5]: 65 (51.2) n (%)
Pyrexia [5]: 21 (16.5) n (%)
Rash [5]: 19 (15.0) n (%)
Sinus tachycardia [5]: 23 (18.1) n (%)
Skin pigmentation [5]: 108 (85.0) n (%)
Thrombocytopenia [5]: 93 (73.2) n (%)
Treatment-related adverse events [5]: 127 (100.0) n (%)
Anemia (TRAE any grades, Total n=165): 90 (54.5) n (%)
Arthralgia (TRAE any grades, Total n=165): 19 (11.5) n (%)
Asthenia (TRAE any grades, Total n=165): 18 (10.9) n (%)
